Results reported in PubChem BioAssay (NCI).
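Protocol summary: plate cells (96-well), add compound at 5 concentrations, incubate 48 h, interpolate endpoints linearly. Definition used: TGI = concentration required for complete inhibition of growth.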

Legend:
Test in all cases: NCI tumour cell line growth inhibition, 48 h
COLO 205 colon = system: COLO 205 colon
MALME-3M melanoma = system: MALME-3M melanoma
NCI-H522 lung = system: NCI-H522 lung
NCI-H23 lung = system: NCI-H23 lung
OVCAR-5 ovarian = system: OVCAR-5 ovarian
SK-MEL-28 melanoma = system: SK-MEL-28 melanoma
SN12C renal = system: SN12C renal
CAKI-1 renal = system: CAKI-1 renal
HCC-2998 colon = system: HCC-2998 colon
NCI-H460 lung = system: NCI-H460 lung
SF-268 CNS = system: SF-268 CNS
OVCAR-3 ovarian = system: OVCAR-3 ovarian
M19-MEL melanoma = system: M19-MEL melanoma
XF 498 CNS = system: XF 498 CNS
UACC-257 melanoma = system: UACC-257 melanoma
M14 melanoma = system: M14 melanoma
OVCAR-8 ovarian = system: OVCAR-8 ovarian
786-0 renal = system: 786-0 renal
SK-OV-3 ovarian = system: SK-OV-3 ovarian
LXFL 529 NSCLC = system: LXFL 529 NSCLC
LOX IMVI melanoma = system: LOX IMVI melanoma
HOP-62 NSCLC = system: HOP-62 NSCLC
U251 CNS = system: U251 CNS
SF-295 CNS = system: SF-295 CNS
SF-539 CNS = system: SF-539 CNS
SK-MEL-2 melanoma = system: SK-MEL-2 melanoma
SK-MEL-5 melanoma = system: SK-MEL-5 melanoma
KM20L2 colon = system: KM20L2 colon
TK-10 renal = system: TK-10 renal
HT29 colon = system: HT29 colon
SW-620 colon = system: SW-620 colon
OVCAR-4 ovarian = system: OVCAR-4 ovarian
A549 NSCLC = system: A549 NSCLC
HCT-116 colon = system: HCT-116 colon
ACHN renal = system: ACHN renal
IGROV1 ovarian = system: IGROV1 ovarian
UACC-62 melanoma = system: UACC-62 melanoma
K-562 leukemia = system: K-562 leukemia
RPMI-8226 leukemia = system: RPMI-8226 leukemia
A498 renal = system: A498 renal
HL-60(TB) leukemia = system: HL-60(TB) leukemia
SNB-19 CNS = system: SNB-19 CNS
EKVX NSCLC = system: EKVX NSCLC
HOP-92 NSCLC = system: HOP-92 NSCLC
DMS 273 small cell lung = system: DMS 273 small cell lung
CCRF-CEM leukemia = system: CCRF-CEM leukemia
SR leukemia = system: SR leukemia
SNB-78 CNS = system: SNB-78 CNS
MOLT-4 leukemia = system: MOLT-4 leukemia
UO-31 renal = system: UO-31 renal
KM12 colon = system: KM12 colon
HCT-15 colon = system: HCT-15 colon
NCI-H226 lung = system: NCI-H226 lung
SNB-75 CNS = system: SNB-75 CNS
DMS 114 small cell lung = system: DMS 114 small cell lung
RXF 393 renal = system: RXF 393 renal

`COC(=O)/C(=N/O)C(C(=O)C=C(C)C)C(=O)C(=O)Nc1nc2ccc([N+](=O)[O-])cc2s1` (stereo not given) was tested, and the TGI (COLO 205 colon) was over 100 µM, the TGI (MALME-3M melanoma) was over 100 µM and the TGI (NCI-H522 lung) was over 100 µM. It also gave a TGI (NCI-H23 lung) of 83.2 µM, a TGI (OVCAR-5 ovarian) of over 100 µM and a TGI (SK-MEL-28 melanoma) of over 100 µM. For the same compound, the TGI (SN12C renal) was over 100 µM, the TGI (CAKI-1 renal) was 97 µM and the TGI (HCC-2998 colon) was over 100 µM. For the same compound, the TGI (NCI-H460 lung) was over 100 µM, the TGI (SF-268 CNS) was 99.2 µM and the TGI (OVCAR-3 ovarian) was 76.1 µM. It also gave a TGI (M19-MEL melanoma) of over 100 µM, a TGI (XF 498 CNS) of over 100 µM and a TGI (UACC-257 melanoma) of over 100 µM. It also gave a TGI (M14 melanoma) of over 100 µM, a TGI (OVCAR-8 ovarian) of over 100 µM and a TGI (786-0 renal) of over 100 µM. It also gave a TGI (SK-OV-3 ovarian) of 63 µM, a TGI (LXFL 529 NSCLC) of over 100 µM and a TGI (LOX IMVI melanoma) of 93.1 µM. The TGI (HOP-62 NSCLC) was over 100 µM, the TGI (U251 CNS) was over 100 µM and the TGI (SF-295 CNS) was over 100 µM. The TGI (SF-539 CNS) was 78.3 µM, the TGI (SK-MEL-2 melanoma) was 71.9 µM and the TGI (SK-MEL-5 melanoma) was over 100 µM. It also gave a TGI (KM20L2 colon) of over 100 µM, a TGI (TK-10 renal) of 95.8 µM and a TGI (HT29 colon) of over 100 µM. The TGI (SW-620 colon) was over 100 µM, the TGI (OVCAR-4 ovarian) was over 100 µM and the TGI (A549 NSCLC) was over 100 µM. For the same compound, the TGI (HCT-116 colon) was over 100 µM, the TGI (ACHN renal) was 67.1 µM and the TGI (IGROV1 ovarian) was over 100 µM. It also gave a TGI (UACC-62 melanoma) of over 100 µM, a TGI (K-562 leukemia) of over 100 µM and a TGI (RPMI-8226 leukemia) of over 100 µM. The TGI (A498 renal) was 31 µM, the TGI (HL-60(TB) leukemia) was over 100 µM and the TGI (SNB-19 CNS) was over 100 µM. It also gave a TGI (EKVX NSCLC) of 57.8 µM, a TGI (HOP-92 NSCLC) of 42.8 µM and a TGI (DMS 273 small cell lung) of over 100 µM. The TGI (CCRF-CEM leukemia) was 74.7 µM, the TGI (SR leukemia) was over 100 µM and the TGI (SNB-78 CNS) was over 100 µM. The TGI (MOLT-4 leukemia) was 72.9 µM, the TGI (UO-31 renal) was 92.8 µM and the TGI (KM12 colon) was over 100 µM. For the same compound, the TGI (HCT-15 colon) was over 100 µM and the TGI (NCI-H226 lung) was 72.1 µM.
`Cn1c(=O)nc2n(-c3cc(C(F)(F)F)cc(C(F)(F)F)c3)c3ccccc3nc-2c1=O` gave a TGI (COLO 205 colon) of over 100 µM, a TGI (MALME-3M melanoma) of over 100 µM and a TGI (NCI-H23 lung) of over 100 µM. For the same compound, the TGI (OVCAR-5 ovarian) was over 100 µM, the TGI (SK-MEL-28 melanoma) was over 100 µM and the TGI (SN12C renal) was over 100 µM. It also gave a TGI (CAKI-1 renal) of over 100 µM, a TGI (HCC-2998 colon) of over 100 µM and a TGI (NCI-H460 lung) of over 100 µM. The TGI (SF-268 CNS) was over 100 µM, the TGI (OVCAR-3 ovarian) was over 100 µM and the TGI (M19-MEL melanoma) was 29.5 µM. The TGI (XF 498 CNS) was over 100 µM, the TGI (UACC-257 melanoma) was over 100 µM and the TGI (M14 melanoma) was over 100 µM. The TGI (OVCAR-8 ovarian) was over 100 µM, the TGI (786-0 renal) was over 100 µM and the TGI (SK-OV-3 ovarian) was over 100 µM. The TGI (LOX IMVI melanoma) was over 100 µM, the TGI (HOP-62 NSCLC) was over 100 µM and the TGI (U251 CNS) was over 100 µM. For the same compound, the TGI (SF-295 CNS) was over 100 µM, the TGI (SF-539 CNS) was over 100 µM and the TGI (SK-MEL-2 melanoma) was over 100 µM. The TGI (SK-MEL-5 melanoma) was 54.4 µM, the TGI (SNB-75 CNS) was 47.1 µM and the TGI (KM20L2 colon) was over 100 µM. It also gave a TGI (TK-10 renal) of over 100 µM, a TGI (HT29 colon) of over 100 µM and a TGI (SW-620 colon) of over 100 µM. It also gave a TGI (OVCAR-4 ovarian) of over 100 µM, a TGI (A549 NSCLC) of over 100 µM and a TGI (HCT-116 colon) of over 100 µM. For the same compound, the TGI (ACHN renal) was over 100 µM, the TGI (IGROV1 ovarian) was over 100 µM and the TGI (K-562 leukemia) was over 100 µM. It also gave a TGI (RPMI-8226 leukemia) of over 100 µM, a TGI (A498 renal) of over 100 µM and a TGI (HL-60(TB) leukemia) of over 100 µM. It also gave a TGI (SNB-19 CNS) of over 100 µM, a TGI (DMS 114 small cell lung) of over 100 µM and a TGI (EKVX NSCLC) of over 100 µM. It also gave a TGI (HOP-92 NSCLC) of over 100 µM, a TGI (DMS 273 small cell lung) of over 100 µM and a TGI (SR leukemia) of over 100 µM. It also gave a TGI (SNB-78 CNS) of over 100 µM, a TGI (MOLT-4 leukemia) of over 100 µM and a TGI (UO-31 renal) of over 100 µM. For the same compound, the TGI (KM12 colon) was over 100 µM, the TGI (RXF 393 renal) was over 100 µM and the TGI (HCT-15 colon) was over 100 µM. The TGI (NCI-H226 lung) was over 100 µM.
